Assay results published in patent US10988474B2, “Compounds acting at multiple prostaglandin receptors giving a general anti-inflammatory response” (ALLERGAN, INC., priority 2011, dated 2021).

Experiments:
Assay type in all cases: cell-based
[1] = molecular target: T1, human prostanoid EP2 receptor (Homo sapiens, UniProt P43116); test: FLIPR Ca2+ signaling PG antagonist assay, EP2 stable cell line; conditions: HEK-293 EBNA cells, human recombinant EP2 with chimeric Gqs; standard agonist PGE2
T1 construct: expressed in transfected cells
T1 sequence (P43116 whole entry): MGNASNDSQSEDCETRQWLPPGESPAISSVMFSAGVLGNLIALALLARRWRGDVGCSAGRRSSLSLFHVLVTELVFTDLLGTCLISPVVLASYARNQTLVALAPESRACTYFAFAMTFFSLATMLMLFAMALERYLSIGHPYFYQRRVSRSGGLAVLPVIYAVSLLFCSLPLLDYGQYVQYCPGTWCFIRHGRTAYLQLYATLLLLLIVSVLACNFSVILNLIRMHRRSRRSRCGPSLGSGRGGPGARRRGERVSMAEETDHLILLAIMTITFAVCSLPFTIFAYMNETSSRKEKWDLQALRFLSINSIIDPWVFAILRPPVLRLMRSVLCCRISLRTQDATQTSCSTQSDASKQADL
Procedure, shortened: (§1)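 HEK-293 EBNA stable lines; EP2 co-expressed with chimeric Gqs, EP1/IP/TP with no exogenous G protein. Fluo-4AM-loaded cells pretreated 4.5 min at 37 °C with compound (0.1–30 μM; TP 0.067–1 μM), then standard agonist (PGE2, cicaprost, U-46619) 10^−11–10^−5 M (TP 10^−12–10^−6 M); peak fluorescence read 3.5 min, nonlinear regression.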

[2] = molecular target: T2, human prostanoid IP receptor (Homo sapiens, UniProt P43119); test: FLIPR Ca2+ signaling PG antagonist assay, IP stable cell line; conditions: HEK-293 EBNA cells, human recombinant IP, no exogenous G-protein; standard agonist Cicaprost
T2 construct: expressed in transfected cells
T2 sequence (P43119 whole entry): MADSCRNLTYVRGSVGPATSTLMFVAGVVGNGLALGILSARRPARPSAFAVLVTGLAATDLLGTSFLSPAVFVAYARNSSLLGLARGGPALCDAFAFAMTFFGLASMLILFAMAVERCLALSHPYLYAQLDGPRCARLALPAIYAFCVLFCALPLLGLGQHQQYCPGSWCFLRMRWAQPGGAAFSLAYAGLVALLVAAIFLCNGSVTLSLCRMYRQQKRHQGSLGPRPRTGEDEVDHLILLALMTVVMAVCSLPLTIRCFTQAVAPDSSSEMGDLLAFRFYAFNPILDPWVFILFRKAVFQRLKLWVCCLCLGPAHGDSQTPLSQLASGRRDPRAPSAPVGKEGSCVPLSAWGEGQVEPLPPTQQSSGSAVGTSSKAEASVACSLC
Procedure, shortened: as §1

[3] = molecular target: T3, human prostanoid FP receptor (Homo sapiens, UniProt P43088); test: FLIPR Ca2+ signaling PG antagonist assay, FP stable cell line; conditions: HEK-293 EBNA cells, human recombinant FP, no exogenous G-protein; standard agonist 17-phenyl-PGF2α
T3 construct: expressed in transfected cells
T3 sequence (P43088 whole entry): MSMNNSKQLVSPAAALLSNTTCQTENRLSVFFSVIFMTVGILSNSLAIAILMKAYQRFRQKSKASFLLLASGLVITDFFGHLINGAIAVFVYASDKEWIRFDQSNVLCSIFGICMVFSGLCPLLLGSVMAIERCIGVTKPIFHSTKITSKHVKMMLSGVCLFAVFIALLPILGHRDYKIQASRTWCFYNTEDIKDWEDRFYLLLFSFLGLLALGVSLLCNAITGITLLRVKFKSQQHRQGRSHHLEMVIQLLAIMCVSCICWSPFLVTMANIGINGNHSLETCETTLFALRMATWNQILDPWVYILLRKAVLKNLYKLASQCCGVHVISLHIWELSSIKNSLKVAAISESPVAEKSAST
Procedure, shortened: (§2)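 Stable HEK-293 EBNA lines (DP1 with chimeric Gqs, EP3 with Gqi, EP1 and FP without exogenous G protein) were Fluo-4AM-loaded and pretreated 4.5 min at 37 °C with compound (0.1–30 μM). Agonist (BW 245C for DP1, PGE2 for EP1/EP3, 17-phenyl-PGF2α for FP) was then added at 10^−11–10^−5 M. Peak Ca2+ fluorescence was taken relative to agonist at 10^−6 M.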

[4] = molecular target: T4, human prostanoid EP4 receptor (Homo sapiens, UniProt P35408); test: FLIPR Ca2+ signaling PG antagonist assay, EP4 stable cell line; conditions: HEK-293 EBNA cells, human recombinant EP4 with chimeric Gqs; standard agonist PGE2
T4 construct: expressed in transfected cells
T4 sequence (P35408 whole entry): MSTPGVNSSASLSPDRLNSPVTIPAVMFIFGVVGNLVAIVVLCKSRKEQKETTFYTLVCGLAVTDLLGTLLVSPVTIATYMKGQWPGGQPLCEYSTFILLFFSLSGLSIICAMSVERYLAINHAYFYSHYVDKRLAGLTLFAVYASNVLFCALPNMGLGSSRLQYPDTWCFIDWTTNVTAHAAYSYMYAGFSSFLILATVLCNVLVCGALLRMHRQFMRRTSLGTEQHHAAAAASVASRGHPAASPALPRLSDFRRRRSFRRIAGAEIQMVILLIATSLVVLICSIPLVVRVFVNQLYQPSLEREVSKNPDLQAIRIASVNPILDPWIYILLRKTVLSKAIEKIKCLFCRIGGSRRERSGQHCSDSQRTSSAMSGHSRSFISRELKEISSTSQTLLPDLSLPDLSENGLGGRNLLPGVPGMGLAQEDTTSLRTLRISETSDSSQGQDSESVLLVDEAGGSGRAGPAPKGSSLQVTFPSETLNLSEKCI
Procedure, shortened: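 Antagonism at human EP4 was assessed as a Ca^2+ signal in stable HEK-293 EBNA transfectants carrying chimeric Gqs. Dye-loaded cells in HBSS-HEPES at 37° C received test compound, then a 7-point 10-fold PGE2 series. Fluorescence was excited at 470-495 nm and read at 515-575 nm for 3.5 minutes, with each condition run in triplicate and buffer used as the negative control.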

[5] = molecular target: T5, human prostanoid TP receptor (Homo sapiens, UniProt P21731); test: FLIPR Ca2+ signaling PG antagonist assay, TP stable cell line; conditions: HEK-293 EBNA cells, human recombinant TP, no exogenous G-protein; standard agonist U-46619
T5 construct: expressed in transfected cells
T5 sequence (P21731 1-343): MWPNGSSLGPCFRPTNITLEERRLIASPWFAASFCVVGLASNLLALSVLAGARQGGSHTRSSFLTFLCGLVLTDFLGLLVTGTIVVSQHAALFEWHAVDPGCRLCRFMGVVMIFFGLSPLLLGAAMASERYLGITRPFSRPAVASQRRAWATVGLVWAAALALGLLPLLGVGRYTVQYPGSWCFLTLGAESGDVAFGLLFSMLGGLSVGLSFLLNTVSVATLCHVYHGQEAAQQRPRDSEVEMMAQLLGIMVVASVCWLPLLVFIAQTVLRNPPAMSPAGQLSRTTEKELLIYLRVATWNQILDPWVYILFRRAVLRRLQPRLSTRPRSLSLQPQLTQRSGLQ
Procedure, shortened: as §1

[6] = molecular target: T6, human prostanoid EP3 receptor (Homo sapiens, UniProt P43115); test: FLIPR Ca2+ signaling PG antagonist assay, EP3 stable cell line; conditions: HEK-293 EBNA cells, human recombinant EP3 with chimeric Gqi; standard agonist PGE2
T6 construct: expressed in transfected cells
T6 sequence (P43115 1-390): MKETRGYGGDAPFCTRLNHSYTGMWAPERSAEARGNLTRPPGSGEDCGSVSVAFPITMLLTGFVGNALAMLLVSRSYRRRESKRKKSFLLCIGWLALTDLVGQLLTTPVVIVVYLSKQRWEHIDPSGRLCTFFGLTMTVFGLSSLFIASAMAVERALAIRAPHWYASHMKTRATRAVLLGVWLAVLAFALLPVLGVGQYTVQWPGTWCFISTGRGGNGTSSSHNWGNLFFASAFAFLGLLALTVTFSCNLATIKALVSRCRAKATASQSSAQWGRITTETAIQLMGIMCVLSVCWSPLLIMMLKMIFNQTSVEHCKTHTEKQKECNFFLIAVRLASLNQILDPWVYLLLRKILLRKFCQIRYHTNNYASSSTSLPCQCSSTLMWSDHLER
Procedure, shortened: as §2

Compound	Kb [1] [µM]	Kb [2] [µM]	Kb [3] [µM]	Kb [4] [µM]	Kb [5] [µM]	Kb [6] [µM]	IP (Kb, PG antagonist activity) [2]
CC(C)COc1ccc(C(F)(F)F)cc1Cn1ncc2cc(C(=O)O)ccc21 [Example 18]	≥ 10	6.5	0.02	0.06	0.004	4	
CC(C)COc1ccc(Cl)cc1Cn1ncc2c(C(=O)O)cccc21 [Example 36, 1-(5-Chloro-2-Isobutoxy-Benzyl)-1H-Indazole-4-Carboxylic Acid]	2.9	0.2	0.58	1.2	0.003	4	
O=C(O)c1ccc2c(cnn2Cc2cc(Cl)ccc2OCC2CC2)c1 [Example 11, 1-(5-Chloro-2-Cyclopropylmethoxy-Benzyl)-1H-Indazole-5-Carboxylic Acid]	2	5.5	0.12	0.11	0.12	6.5	
O=C(O)c1ccc2c(cnn2Cc2cc(Br)ccc2OCc2ccccc2)c1 [Example 12, 1-(2-Benzyloxy-5-Bromo-Benzyl)-1H-Indazole-5-Carboxylic Acid]	7.9	5	0.12	1.15	0.044	≥ 10	
CC(C)COc1ccc(Br)cc1Cn1ncc2c(C(=O)O)cccc21 [Example 7, 1-(5-Bromo-2-Isobutoxy-Benzyl)-1H-Indazole-4-Carboxylic Acid]	4.4	1.3	0.3	1.8	0.02	≥ 10	
O=C(O)c1ccc2c(cnn2Cc2cc(Br)ccc2OCc2ccc(Cl)cc2)c1 [Example 13, 1-[5-Bromo-2-(4-Chloro-Benzyloxy)-Benzyl]-1H-Indazole-5-Carboxylic Acid]	1.9	0.6	0.02	2.7	0.9	8.5	
CCC(CC)COc1ccc(Cl)cc1Cn1ncc2c(C(=O)O)cccc21 [Example 38, 1-[5-Chloro-2-(2-Ethyl-Butoxy)-Benzyl]-1H-Indazole-4-Carboxylic Acid]	2.1	0.06	1.1	0.4	0.003	1.7	
CC(C)COc1ccc(Cl)cc1Cn1ncc2cc(C(=O)O)cnc21 [Example 57, 1-(5-Chloro-2-Isobutoxy-Benzyl)-1H-Pyrazolo[3,4-B]Pyridine-5-Carboxylic Acid]	≥ 10	≥ 10	0.19	1.3	0.15	≥ 10	
CC(C)COc1ccc(Br)cc1Cn1ccc2cc(C(=O)O)ccc21 [Example 67, 1-(5-Bromo-2-Isobutoxy-Benzyl)-1H-Indole-5-Carboxylic Acid]	≥ 10	≥ 10	0.1	0.34	0.16	≥ 10	

Continued, values first:

Kb [1] [µM]	Kb [2] [µM]	Kb [3] [µM]	Kb [4] [µM]	Kb [5] [µM]	Kb [6] [µM]	IP (Kb, PG antagonist activity) [2]	Compound
2.6	0.4	0.07	0.03	0.001	1.4		O=C(O)c1ccc2c(cnn2Cc2cc(C(F)(F)F)ccc2OCC2CCCC2)c1 [Example 33, 1-(2-Cyclopentylmethoxy-5-Trifluoromethyl-Benzyl)-1H-Indazole-5-Carboxylic Acid]
≥ 10	≥ 10	4.3	0.67	1.2	≥ 10		O=C(O)c1cccc2nn(Cc3cc(Cl)ccc3OCC3CC3)cc12 [Example 35, 2-(5-Chloro-2-Cyclopropylmethoxy-Benzyl)-2H-Indazole-4-Carboxylic Acid]
8.8	4.6	0.016	0.014	0.05	3.6		CC1(COc2ccc(Br)cc2Cn2ncc3cc(C(=O)O)ccc32)CC1 [Example 19]
≥ 10	≥ 10	1.1	2.7	0.64	≥ 10		CC(C)COc1ccc(O)cc1Cn1ncc2cc(C(=O)O)ccc21 [Example 54]
≥ 10		1.4	3.2	0.001	1.6	PAg	O=C(O)c1ccc2cnn(Cc3cc(Br)ccc3OCC3CCCC3)c2c1 [Example 44, 1-(5-Bromo-2-Cyclopentylmethoxy-Benzyl)-1H-Indazole-6-Carboxylic Acid]
